# Laboratory results published in patent US12583855B2, “RET selective inhibitor, preparation method therefor and use thereof” (SHOUYAO HOLDINGS (BEIJING) CO., LTD., priority 2019, dated 2026).
# Where a chain is given by its changes, count along the chain named.
# Legend:
# TT cells = test: TT cell proliferation activity (Cell-Titer Glo); format: cell-based; conditions: TT human thyroid carcinoma cells, 120 h
# Method: 4. Determination of TT Cell Proliferation Activity of Compounds
# TT cells, a human thyroid carcinoma cell line, were cultured in Ham's F-12K medium supplemented with 15% fetal bovine serum (FBS, purchased from Biological Industries, BI) and 1% penicillin/streptomycin double antibody (P/S, purchased from Life Technology) under conditions of 37° C. and 5% CO2. TT cells were plated in a 96-well plate (#3917 purchased from Corning) at a concentration of 5000 cells/195 μL/well the day before compound was detected. The compounds were diluted 3-fold with 100% DMSO starting from 10 mM (10 concentrations in total) after 24 h, and 2 μL of each concentration was diluted in 48 μL of Ham's F-12K medium. 5 μL of each diluted compound was added to the plated Cell suspension, the compound and cells were co-incubated in a cell incubator for 120 h (5 days), after the medium was aspirated. 25 μL of Cell-Titer Glo (G7570, purchased from Promega) reagent was added and re-incubated for 5-10 min. Fluorescence value was then read on Envision and the data were calculated using GraphPad Prism software to obtain IC50 values for inhibition of cell proliferation by the compounds.
# VEGFR2 = VEGFR2 (Homo sapiens, UniProt P35968); test: In vitro enzymatic activity assay on VEGFR2 (HTRF); format: biochemical; conditions: GST-VEGFR2 0.1 nM, ATP 2.5 μM
# Chain of VEGFR2 (P35968 20-1356): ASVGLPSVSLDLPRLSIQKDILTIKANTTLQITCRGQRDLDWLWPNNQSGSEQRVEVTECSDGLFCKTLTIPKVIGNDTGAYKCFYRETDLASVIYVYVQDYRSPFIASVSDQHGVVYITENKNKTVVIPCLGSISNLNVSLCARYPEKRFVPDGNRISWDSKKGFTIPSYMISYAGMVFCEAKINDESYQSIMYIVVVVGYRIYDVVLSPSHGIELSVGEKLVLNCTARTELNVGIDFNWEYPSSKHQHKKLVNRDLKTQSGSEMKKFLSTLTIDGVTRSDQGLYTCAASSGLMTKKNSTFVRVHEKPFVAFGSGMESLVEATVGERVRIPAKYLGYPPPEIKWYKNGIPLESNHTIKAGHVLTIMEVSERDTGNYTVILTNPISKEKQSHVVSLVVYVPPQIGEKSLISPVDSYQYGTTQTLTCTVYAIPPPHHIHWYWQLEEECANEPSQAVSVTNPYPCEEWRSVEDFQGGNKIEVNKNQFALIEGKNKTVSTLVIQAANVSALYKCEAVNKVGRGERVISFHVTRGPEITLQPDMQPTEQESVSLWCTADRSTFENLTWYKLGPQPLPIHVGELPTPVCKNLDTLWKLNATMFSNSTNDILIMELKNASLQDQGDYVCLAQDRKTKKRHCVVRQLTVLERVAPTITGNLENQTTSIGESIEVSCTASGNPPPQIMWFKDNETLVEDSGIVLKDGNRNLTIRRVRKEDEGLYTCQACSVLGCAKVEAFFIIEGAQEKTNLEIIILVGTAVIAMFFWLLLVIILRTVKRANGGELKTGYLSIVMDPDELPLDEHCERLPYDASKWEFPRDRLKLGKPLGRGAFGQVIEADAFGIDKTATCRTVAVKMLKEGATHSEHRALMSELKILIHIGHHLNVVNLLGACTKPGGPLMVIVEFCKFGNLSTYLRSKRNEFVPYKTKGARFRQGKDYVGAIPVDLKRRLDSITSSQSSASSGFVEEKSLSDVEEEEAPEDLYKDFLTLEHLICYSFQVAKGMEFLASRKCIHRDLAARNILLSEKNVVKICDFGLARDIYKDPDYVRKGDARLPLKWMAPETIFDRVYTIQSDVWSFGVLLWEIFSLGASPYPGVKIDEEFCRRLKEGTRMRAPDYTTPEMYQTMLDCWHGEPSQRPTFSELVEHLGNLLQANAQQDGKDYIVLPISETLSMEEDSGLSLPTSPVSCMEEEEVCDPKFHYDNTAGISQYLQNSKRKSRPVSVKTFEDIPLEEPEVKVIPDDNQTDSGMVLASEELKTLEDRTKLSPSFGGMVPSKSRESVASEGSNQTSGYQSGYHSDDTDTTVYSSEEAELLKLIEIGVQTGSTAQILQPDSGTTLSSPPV
# Procedure, shortened: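 GST-VEGFR2 (0.1 nM final) with 2.5 μM ATP and 1 μM TK peptide substrate in HEPES pH 7.5 buffer with Mg²⁺/Mn²⁺, 1.5 h at 23 °C. HTRF read-out (665/620 nm ratio) after adding TK antibody and streptavidin-XL665. IC50 from 7-point, 5-fold dilution series.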
# [1] = Pharmacokinetic data of compounds in male SD rats; format: in vivo; conditions: rat, po, intragastric, 5 mg/kg, suspension MC 0.5%, plasma
# Method: 6. Pharmacokinetic Data of Compounds
# Male SD rats (Beijing Vital River Laboratory Animal Technology Co., Ltd) were divided into groups. 3 in each group, received intragastric administration with the suspension of the test sample (5 mg/kg, suspensions MC 0.5%), respectively. Animals were fasted overnight prior to the experiment from 10 h before dosing to 4 h after dosing. Blood was collected 0.25, 0.5, 1, 2, 4, 6, 8, and 24 h after administration, respectively. After isoflurane anesthesia using a small animal anesthesia machine, 0.3 mL of whole blood samples was taken through the fundus venous plexus, placed in a heparin anticoagulant tube, and were centrifuged at 4° C. 4000 rpm for 5 min plasma was transferred to the centrifuge tube, and stored at −80° C. until analysis. Samples in the plasma were extracted using protein precipitation and the extracts were analyzed by LC/MS.
# RET^V804M = molecular target: T1, RET^V804M (Homo sapiens, UniProt P07949, V804M); test: In vitro enzymatic activity assay on RET^V804M (HTRF); format: biochemical; conditions: GST-RET^V804M (658-1114 aa) 0.02 nM, ATP 1.5 μM
# T1 construct: GST-RET^V804M (658-1114 aa, final concentration of 0.02 nM)
# T1 sequence (P07949 658-1114 V804M): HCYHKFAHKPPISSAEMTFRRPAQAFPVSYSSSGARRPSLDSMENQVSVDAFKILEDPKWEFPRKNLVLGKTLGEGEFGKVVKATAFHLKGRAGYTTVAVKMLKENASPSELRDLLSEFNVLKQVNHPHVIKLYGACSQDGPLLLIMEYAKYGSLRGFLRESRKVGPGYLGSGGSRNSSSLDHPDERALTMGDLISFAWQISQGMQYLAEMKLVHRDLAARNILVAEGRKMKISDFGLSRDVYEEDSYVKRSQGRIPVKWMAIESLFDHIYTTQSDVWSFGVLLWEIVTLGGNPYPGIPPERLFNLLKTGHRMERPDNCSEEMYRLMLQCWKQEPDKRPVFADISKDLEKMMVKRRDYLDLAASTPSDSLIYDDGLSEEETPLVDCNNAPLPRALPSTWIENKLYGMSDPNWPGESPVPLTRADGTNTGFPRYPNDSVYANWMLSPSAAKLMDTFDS
# RET^WT = molecular target: T2, RET^WT (Homo sapiens, UniProt P07949); test: In vitro enzymatic activity assay on RET^WT (HTRF); format: biochemical; conditions: GST-RET^WT (658-1114 aa) 0.5 nM, ATP 25 μM
# T2 construct: GST-RET^WT (658-1114 aa, final concentration of 0.5 nM)
# T2 sequence (P07949 658-1114): T1 sequence (P07949 658-1114 V804M) with M147V
# Procedure, shortened: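 Reaction run 2 h at 23 °C in HEPES pH 7.5 buffer with Na3VO4, MgCl2, DTT, Tween 20 and BSA; compounds tested at 7 concentrations (5-fold serial dilution in DMSO from 0.2 mM stock). HTRF detection with TK antibody and streptavidin-XL665; IC50 from curve fitting.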
AUC(0-inf) [1],Cmax [1],Tmax [1],half-life [1],SMILES,IC50 (TT cells),IC50 (VEGFR2),IC50 (RET^V804M),IC50 (RET^WT)
15300 ng·h/mL,1490 ng/mL,4 h,3.38 h,"CSc1ccc(CN2CCN(c3ccc(-c4cc(-c5cnn(C)c5)cn5ncc(C#N)c45)cn3)CC2)cn1 [Example 10, 6-(1-methyl-1Hpyrazol-4-yl)-4-(6-(4-((6-(methylthio)pyridin-3-yl)methyl)piperazin-1-yl)pyridin-3-yl)pyrazolo[1,5-a]pyridine-3-carbonitrile]",23.8 nM,13.9 nM,–,–
6650 ng·h/mL,1330 ng/mL,1.17 h,3.56 h,"Cn1cc(-c2cc(-c3ccc(N4CCN(Cc5cccc(S(C)(=O)=O)c5)CC4)nc3)c3c(C#N)cnn3c2)cn1 [Example 15, 6-(1-methyl-1Hpyrazol-4-yl)-4-(6-(4-(3-(methylsulfonyl)benzyl)piperazin-1-yl)pyridin-3-yl)pyrazolo[1,5-a]pyridine-3-carbonitrile]",17.8 nM,11.8 nM,–,–
42700 ng·h/mL,3790 ng/mL,4 h,4.08 h,"Cn1cc(-c2cc(-c3ccc(N4CCN(Cc5ccc(S(C)(=O)=O)cc5)CC4)nc3)c3c(C#N)cnn3c2)cn1 [Example 16, 6-(1-methyl-1Hpyrazol-4-yl)-4-(6-(4-(4-(methylsulfonyl)benzyl)piperazin-1-yl)pyridin-3-yl)pyrazolo[1,5-a]pyridine-3-carbonitrile]",36.7 nM,8.95 nM,–,–
–,–,–,–,"Cn1cc(-c2cc(-c3ccc(N4CC5CC(C4)N5Cc4ccccc4S(C)(=O)=O)nc3)c3c(C#N)cnn3c2)cn1 [Example 43, 6-(1-methyl-1Hpyrazol-4-yl)-4-(6-(6-(2-(methylsulfonyl)benzyl)-3,6-diazabicyclo[3.1.1]heptan-3-yl)pyridin-3-yl)pyrazolo[1,5a]pyridine-3-carbonitrile]",16.4 nM,13.4 nM,0.507 nM,0.132 nM
–,–,–,–,"CS(=O)(=O)c1cccc(CN2CCN(c3ccc(-c4cc(-c5cnn(C(F)F)c5)cn5ncc(C#N)c45)cn3)CC2)c1 [Example 47, 6-(1-difluoromethyl-1Hpyrazol-4 yl)-4-(6-(4-(3-(methylsulfonyl)benzyl)piperazin-1-yl)pyridin-3-yl)pyrazolo[1,5-a]pyridine-3-carbonitrile]",53.1 nM,16.9 nM,2.48 nM,0.343 nM
–,–,–,–,"CS(=O)(=O)c1ccc(CN2C3CC2CN(c2ccc(-c4cc(-c5cn[nH]c5)cn5ncc(C#N)c45)cn2)C3)cc1 [Example 53, 6-(1Hpyrazol-4-yl)-4-(6-(6-(4-(methylsulfonyl)benzyl)-3,6-diazabicyclo 13.1.11 heptan-3-yl)pyridin-3-yl)pyrazolo[1,5-a]pyridine-3-carbonitrile]",14.6 nM,2.46 nM,0.807 nM,0.072 nM
–,–,–,–,"CS(=O)(=O)c1cccc(CN2C3CC2CN(c2ccc(-c4cc(-c5cnn(C(F)F)c5)cn5ncc(C#N)c45)cn2)C3)c1 [Example 55, 6-(1-difluoromethyl-1Hpyrazol-4-yl)-4-(6-(6-(3-(methylsulfonyl)benzyl)-3,6-diazabicyclo[3.1.1]heptan-3-yl)pyridin-3-yl)pyrazolo[1,5-a]pyridine-3-carbonitrile]",15.4 nM,19.6 nM,0.976 nM,0.109 nM
–,–,–,–,"CS(=O)(=O)c1ccccc1CN1C2CC1CN(c1ccc(-c3cc(-c4cnn(C(F)F)c4)cn4ncc(C#N)c34)cn1)C2 [Example 56, 6-(1-difluoromethyl-1Hpyrazol-4-yl)-4-(6-(6-(2-(methylsulfonyl)benzyl)-3,6-diazabicyclo[3.1.1]heptan-3-yl)pyridin-3-yl)pyrazolo[1,5-a]pyridine-3-carbonitrile]",39.9 nM,59 nM,1.78 nM,0.08 nM
–,–,–,–,"CS(=O)(=O)c1cccc(CN2C3CC2CN(c2ccc(-c4cc(N5CC(F)(F)C5)cn5ncc(C#N)c45)cn2)C3)c1 [Example 64, 6-(3,3-difluoroazetidin-1-yl)-4-(6-(6-(3-(methylsulfonyl)benzyl)-3,6-diazabicyclo[3.1.1]heptan-3-yl)pyridin-3-yl)pyrazolo[1,5-a]pyridine-3-carbonitrile]",42.2 nM,15.5 nM,1.71 nM,0.493 nM
–,–,–,–,"Cn1cc(-c2cc(-c3ccc(N4CC5CC(C4)N5Cc4ccc(S(C)(=O)=O)nc4)nc3)c3c(C#N)cnn3c2)cn1 [Example 76, 6-(1-(methyl)-1Hpyrazol-4-yl)-4-(6-(6-((6-(methylsulfonyl)pyridin-3-yl)methyl)-3,6-diazabicyclo[3.1.1]heptan-3-yl)pyridin-3-yl)pyrazolo[1,5-a]pyridine-3-carbonitrile]",16.6 nM,2.81 nM,0.479 nM,0.296 nM
–,–,–,–,"CS(=O)(=O)c1ccc(CN2C3CC2CN(c2ccc(-c4cc(-c5cnn(C(F)F)c5)cn5ncc(C#N)c45)cn2)C3)cn1 [Example 77, 6-(1-(difluoromethyl)-1Hpyrazol-4-yl)-4-(6-(6-((6-(methylsulfonyl)pyridin-3-yl)methyl)-3,6-diazabicyclo[3.1.1]heptan-3-yl)pyridin-3-yl)pyrazolo[1,5-a]pyridine-3-carbonitrile]",23.1 nM,7.56 nM,0.791 nM,0.468 nM
–,–,–,–,"CS(=O)(=O)c1ccc(CN2C3CC2CN(c2ccc(-c4cc(-c5cnn(C(F)F)c5)cn5ncc(C#N)c45)cn2)C3)nc1 [Example 78, 6-(1-(difluoromethyl)-1Hpyrazol-4-yl)-4-(6-(6-((5-(methylsulfonyl)pyridin-2-yl)methyl)-3,6-diazabicyclo[3.1.1]heptan-3-yl)pyridine-3-yl)pyrazolo[1,5-a]pyridine-3-carbonitrile]",28.2 nM,10.4 nM,1.04 nM,0.387 nM
–,–,–,–,"Cn1cc(-c2cc(-c3ccc(N4CC5CC(C4)N5Cc4ccc(S(C)(=O)=O)cn4)nc3)c3c(C#N)cnn3c2)cn1 [Example 79, 6-(1-(methyl)-1Hpyrazol-4-yl)-4-(6-(6-((5-(methylsulfonyl)pyridin-2-yl)methyl)-3,6-diazabicyclo[3.1.1]heptan-3-yl)pyridin-3-yl)pyrazolo[1,5-a]pyridine-3-carbonitrile]",21.3 nM,5.21 nM,0.64 nM,0.331 nM
